Laboratory results as given in article PMC9921273, “Omega-3 PUFAs as a Dietary Supplement in Senile Systemic Amyloidosis” (Nutrients, 2023).

Legend:
transthyretin (wt-TTR) [1] = target: T1, transthyretin (wt-TTR) (Homo sapiens, UniProt P02766); test: ANS fluorescence displacement binding assay (also turbidimetric and ThT fibril formation assays); set-up: wt-TTR tetramer, human plasma
transthyretin (wt-TTR) [2] = target: T1, transthyretin (wt-TTR); test: ANS fluorescence displacement binding assay (also turbidimetric fibril formation assay); set-up: wt-TTR tetramer, human plasma

CC/C=C\C/C=C\C/C=C\C/C=C\C/C=C\C/C=C\CCC(=O)O [DHA, docosahexaenoic acid]
IC50 (transthyretin (wt-TTR) [1]): 12.1 ± 0.07 µM

CC/C=C\C/C=C\C/C=C\C/C=C\C/C=C\CCCC(=O)O [EPA, eicosapentaenoic acid]
IC50 (transthyretin (wt-TTR) [2]): 13 ± 0.08 µM
